The values below come from patent publication US7608581B2, “Biofunctional, antimicrobial coatings for medical devices” (Affinergy, Inc., priority 2004, dated 2009).

The conditions of this experiment: as compared to SEQ ID NO:73 (two cysteines substituted by serine).

Take SDKSHKHWYSYESKYGGS [SEQ ID NO:74]: the “reduction in binding affinity” value turned out to be 10 fold.
